For data set [1] the following is noted: paclitaxel 100 mg/m^2; patients receiving PIs (nelfinavir, indinavir, other multiple protease inhibitors); Kaposi Sarcoma and HIV; cited from earlier work.
Data set [2] in a line: Paclitaxel plasma pharmacokinetics, cycle 1 day 1. The format is in vivo, human.
The nature of data set [3]: Adverse events, NCI CTCAE version 4.0, worst grade in any cycle. The settings on record: 2 patients, first vorinostat dose level (400 mg orally days 1-5 of each cycle). The format is in vivo, human.
Setting [4] is: Ritonavir cohort, cycle 1, paclitaxel 175 mg/m^2 IV with carboplatin.

As for `CC(=O)O[C@H]1C(=O)[C@@]2(C)[C@H]([C@H](OC(=O)c3ccccc3)[C@]3(O)C[C@H](OC(=O)[C@H](O)[C@@H](NC(=O)c4ccccc4)c4ccccc4)C(C)=C1C3(C)C)[C@]1(OC(C)=O)CO[C@@H]1C[C@@H]2O` [Paclitaxel], the “Paclitaxel exposure as measured by AUC” value in data set [1] is 5.5 ± 2.2 µM·h. Besides, the “differences in Cmax or AUCinf between the 2 cohorts” value in data set [2] (6 patients, ritonavir vs non-ritonavir) was “no significant differences”. For the same compound, in data set [2] (setting [4]), the Cl amounted to 4.1 L/hr/m^2 and the “Time > C 0.5 µM” value stood at 22.7 h. For the same compound, in data set [2] (non-ritonavir cohort), the “duration spent at a paclitaxel concentration >0.05 µM” value was found to be 23.8 h. Moreover, the “pharmacokinetic interaction with ritonavir” value in data set [2] (ritonavir at a boosting dose for ART in combination with paclitaxel) is “no evidence for pharmacokinetic interaction”. Moreover, in data set [2] (ritonavir cohort), the “duration spent at a paclitaxel concentration >0.05 µM” value worked out at 22.7 h.

`O=C(CCCCCCC(=O)Nc1ccccc1)NO` [vorinostat]: in data set [3], the “toxicity of PCb combination with vorinostat” value is given as “without prohibitive toxicity”.

Values taken from publication PMC9355812 (The Oncologist, 2022).
